Data published in patent US7247612B2, “Methods of treating an inflammatory disease with a JJT-1 polypeptide” (Japan Tobacco Inc., priority 1997, dated 2007).

Test system: rat lymphoblast cells activated with concanavalin A
Experiment: Aggregation of concanavalin A-activated rat lymphoblast cells
Format: cell-based
Details: ConA-activated rat lymphoblasts
Protocol: The hybridomas prepared in Example 1 were screened by analyzing the effect of the antibodies produced in the culture supernatant of the hybridomas on FTL435 cells, which were used as the immunogen. FTL435 cells (5×10^6 cells/ml, 0.1 ml) were seeded into each well of a 96-well microtiter plate and cultivated at 37° C. for an hour in the presence of culture supernatant of each hybridoma (10 μg/ml each).
In order to determine whether the aggregation of FTL435 cells induced by “JTT-1 antibody” stimulation was caused by the cell adhesion between intercellular adhesion molecule-1 (ICAM-1) and lymphocyte function-associated antigen-1 (LFA-1), which is a representative known pathway of cell adhesion, FTL435 cells were cultivated at 37° C. for an hour in the presence of anti-rat ICAM-1 antibody 1A29 (10 μg/ml; IgG1) or anti-rat LFA-1 antibody (10 μg/ml; IgG2a) together with “JTT-1 antibody.”
In order to further analyze the cell agglutination ability of “JTT-1 antibody,” the ability to agglutinate rat lymphoblast cells activated with concanavalin A stimulation was analyzed in the same manner as mentioned above.

In the case of `CCCCCCCCCCCCCC(=O)O[C@@H]1[C@@H](C)[C@@]2(O)[C@@H](C=C(CO)C[C@]3(O)C(=O)C(C)=C[C@@H]23)[C@@H]2C(C)(C)[C@]12OC(C)=O` [phorbol myristate acetate], the “Aggregation of activated lymphoblast cells” value was “no aggregation through cell adhesion unless they receive the stimulation”.
